The record followed here is US20230233430A1, “POLYOL ESTERS FROM BIOBASED FEEDSTOCKS FOR USE AS EMOLLIENT IN PERSONAL CARE APPLICATIONS” (priority 2020, published 2023).

The nature of this data set: Decomposition temperature by thermogravimetric analyser (TGA). The format is physicochemical. Conditions: reactants. As to the method: The decomposition temperature of the reactants and polyol ester of different grades (PE25, PE50 and PE100) were determined using a thermogravimetric analyser (TGA). TGA is a method of thermal analysis by measuring the changes in the mass of a sample over increasing temperatures.

Compound `CCCCCCCC(=O)O` [Caprylic acid] came in with a Decomposition temperature of 150.9 to 193.3 °C.
As for `OCC(O)CO` [Glycerin], the Decomposition temperature lay within 178.7 to 220.9 °C.
In the case of `O=C(O)CCCCCCCCC(=O)O` [Sebacic acid], the “Amount of sample decomposed within the temperature range” value is 95.24 wt. % and the Decomposition temperature lay in the range of 247.9 to 283.9 °C.
